Measured values from US10807992B2, “Single enantiomer antiparasitic compounds” (priority 2017, dated 2020).

Tests used:
Ctenocephalides felis [1] = assay: In vitro ingestion activity against fleas (artificial feeding, bovine blood); details: for mortality at 0.003 ppm: Trial 3, dose 0.003 ppm; for mortality at 0.012 ppm: Trial 3, dose 0.012 ppm; for mortality at 0.049 ppm: Trial 3, dose 0.049 ppm; for mortality at 0.2 ppm: Trial 3, dose 0.20 ppm; for mortality at 0.78 ppm: Trial 3, dose 0.78 ppm; for mortality at 3.125 ppm: Trial 3, dose 3.125 ppm; for mortality at 12.5 ppm: Trial 3, dose 12.5 ppm; for mortality at 50 ppm: Trial 3, dose 50 ppm
Method: (§1) Ctenocephalides felis (Avista Pharma, Inc., RTP, NC), 1-7days post hatch, held in an environmental chamber at 24° C., 85% humidity.
For flea ingestion tests, serial dilutions of the compound stock were performed using DMSO to achieve the desired range for EC50 and EC90 determination. An aliquot of each compound dilution was added to organic bovine blood with a final DMSO concentration of 0.5% and placed in an artificial feeding container.
(§2) Compounds tested were C1 racemate, the C1 (R) enantiomer, and the C1 (S) enantiomer. For Trial 3, the C1 (R) enantiomer and the C1 (S) enantiomer were further chiral purified to achieve >99% purity.
(§3) For both contact and ingestion assays, ten newly emerged unfed adult fleas, 0-7 days old Ctenocephalides felis, from a laboratory colony, were aspirated into each vial or cage. The test vials for contact assays were held in an environmental chamber at 24° C., 80% humidity with light/dark cycles (12 hours each). The cages for flea ingestion assays were held in a temperature-controlled artificial feeding apparatus to allow continual access to organic bovine blood containing the desired concentration of compound. Fresh aliquots of compound-spiked bovine blood were provided daily for the duration of the study.
(§4) Fleas were evaluated for percent mortality at various time points between 2 hours and 48 hours post infestation. Fleas showing normal movement and/or jumping ability were considered viable and those showing no movement after tapping the vials were scored as dead.

Ctenocephalides felis [2] = assay: In vitro contact activity against fleas (coated substrate); details: for mortality at 0.006 ppm: Trial 3, dose 0.006 ppm; for mortality at 0.024 ppm: Trial 3, dose 0.024 ppm; for mortality at 0.098 ppm: Trial 3, dose 0.098 ppm; for mortality at 0.39 ppm: Trial 3, dose 0.39 ppm; for mortality at 1.56 ppm: Trial 3, dose 1.56 ppm; for mortality at 6.25 ppm: Trial 3, dose 6.25 ppm; for mortality at 25 ppm: Trial 3, dose 25 ppm; for mortality at 100 ppm: Trial 3, dose 100 ppm
Method: as §1
For flea contact tests, vial caps were pre-drilled with a single hole in the center of each cap to allow air exchange. A filter paper (Whatman Grade 540 2.1 cm) was placed in the lid of each vial. Pipe cleaners cut to 0.5 inches were inserted in each test vial. An aliquot was taken from each compound stock and added to an acetone/triton solution to achieve the desired top concentrations for the study. Serial dilutions were conducted from the top dose (i.e. 100 ppm) to achieve the desired concentration for EC50 and EC90 determination. The final DMSO concentration was 0.5%. A 75 μL aliquot of each compound formulation was added to each 0.5 inch pipe cleaner contained in the treatment vial. The vials were loosely capped and allowed to dry for a minimum of four hours in a chemical fume hood.
as §2, §3, §4

SMILES: O=C(CC(F)(F)F)N1CC2(C1)OCc1cc(C3=NSC(c4cc(Cl)c(F)c(Cl)c4)(C(F)(F)F)C3)ccc12 (racemic) [C1 racemate, 1-[6-[5-(3,5-dichloro-4-fluoro-phenyl)-5-(trifluoromethyl)-4H-isothiazol-3-yl]spiro[1H-isobenzofuran-3,3′-azetidine]-1′-yl]-3,3,3-trifluoro-propan-1-one]
- mortality at 0.003 ppm (Ctenocephalides felis [1]; 6 h, Rep1): 0%
- mortality at 0.003 ppm (Ctenocephalides felis [1]; 6 h, Rep2): 0%
- mortality at 0.012 ppm (Ctenocephalides felis [1]; 6 h, Rep1): 0%
- mortality at 0.012 ppm (Ctenocephalides felis [1]; 6 h, Rep2): 0%
- mortality at 0.049 ppm (Ctenocephalides felis [1]; 6 h, Rep1): 0%
- mortality at 0.049 ppm (Ctenocephalides felis [1]; 6 h, Rep2): 0%
- mortality at 0.2 ppm (Ctenocephalides felis [1]; 6 h, Rep1): 10%
- mortality at 0.2 ppm (Ctenocephalides felis [1]; 6 h, Rep2): 10%
- mortality at 0.78 ppm (Ctenocephalides felis [1]; 6 h, Rep1): 70%
- mortality at 0.78 ppm (Ctenocephalides felis [1]; 6 h, Rep2): 90%
- mortality at 3.125 ppm (Ctenocephalides felis [1]; 6 h, Rep1): 90%
- mortality at 3.125 ppm (Ctenocephalides felis [1]; 6 h, Rep2): 70%
- mortality at 12.5 ppm (Ctenocephalides felis [1]; 6 h, Rep1): 90%
- mortality at 12.5 ppm (Ctenocephalides felis [1]; 6 h, Rep2): 100%
- mortality at 50 ppm (Ctenocephalides felis [1]; 6 h, Rep1): 90%
- mortality at 50 ppm (Ctenocephalides felis [1]; 6 h, Rep2): 70%
- mortality at 0.003 ppm (Ctenocephalides felis [1]; 24 h, Rep1): 0%
- mortality at 0.003 ppm (Ctenocephalides felis [1]; 24 h, Rep2): 0%
- mortality at 0.012 ppm (Ctenocephalides felis [1]; 24 h, Rep1): 0%
- mortality at 0.012 ppm (Ctenocephalides felis [1]; 24 h, Rep2): 0%
- mortality at 0.049 ppm (Ctenocephalides felis [1]; 24 h, Rep1): 0%
- mortality at 0.049 ppm (Ctenocephalides felis [1]; 24 h, Rep2): 10%
- mortality at 0.2 ppm (Ctenocephalides felis [1]; 24 h, Rep1): 30%
- mortality at 0.2 ppm (Ctenocephalides felis [1]; 24 h, Rep2): 80%
- mortality at 0.78 ppm (Ctenocephalides felis [1]; 24 h, Rep1): 90%
- mortality at 0.78 ppm (Ctenocephalides felis [1]; 24 h, Rep2): 90%
- mortality at 3.125 ppm (Ctenocephalides felis [1]; 24 h, Rep1): 90%
- mortality at 3.125 ppm (Ctenocephalides felis [1]; 24 h, Rep2): 90%
- mortality at 12.5 ppm (Ctenocephalides felis [1]; 24 h, Rep1): 90%
- mortality at 12.5 ppm (Ctenocephalides felis [1]; 24 h, Rep2): 100%
- mortality at 50 ppm (Ctenocephalides felis [1]; 24 h, Rep1): 90%
- mortality at 50 ppm (Ctenocephalides felis [1]; 24 h, Rep2): 80%
- mortality at 0.003 ppm (Ctenocephalides felis [1]; 48 h, Rep1): 0%
- mortality at 0.003 ppm (Ctenocephalides felis [1]; 48 h, Rep2): 0%
- mortality at 0.012 ppm (Ctenocephalides felis [1]; 48 h, Rep1): 0%
- mortality at 0.012 ppm (Ctenocephalides felis [1]; 48 h, Rep2): 0%
- mortality at 0.049 ppm (Ctenocephalides felis [1]; 48 h, Rep1): 10%
- mortality at 0.049 ppm (Ctenocephalides felis [1]; 48 h, Rep2): 10%
- mortality at 0.2 ppm (Ctenocephalides felis [1]; 48 h, Rep1): 80%
- mortality at 0.2 ppm (Ctenocephalides felis [1]; 48 h, Rep2): 80%
- mortality at 0.78 ppm (Ctenocephalides felis [1]; 48 h, Rep1): 90%
- mortality at 0.78 ppm (Ctenocephalides felis [1]; 48 h, Rep2): 100%
- mortality at 3.125 ppm (Ctenocephalides felis [1]; 48 h, Rep1): 90%
- mortality at 3.125 ppm (Ctenocephalides felis [1]; 48 h, Rep2): 100%
- mortality at 12.5 ppm (Ctenocephalides felis [1]; 48 h, Rep1): 90%
- mortality at 12.5 ppm (Ctenocephalides felis [1]; 48 h, Rep2): 100%
- mortality at 50 ppm (Ctenocephalides felis [1]; 48 h, Rep1): 90%
- mortality at 50 ppm (Ctenocephalides felis [1]; 48 h, Rep2): 90%
- mortality at 0.006 ppm (Ctenocephalides felis [2]; 6 h, Rep1): 0%
- mortality at 0.006 ppm (Ctenocephalides felis [2]; 6 h, Rep2): 0%
- mortality at 0.024 ppm (Ctenocephalides felis [2]; 6 h, Rep1): 0%
- mortality at 0.024 ppm (Ctenocephalides felis [2]; 6 h, Rep2): 0%
- mortality at 0.098 ppm (Ctenocephalides felis [2]; 6 h, Rep1): 0%
- mortality at 0.098 ppm (Ctenocephalides felis [2]; 6 h, Rep2): 0%
- mortality at 0.39 ppm (Ctenocephalides felis [2]; 6 h, Rep1): 0%
- mortality at 0.39 ppm (Ctenocephalides felis [2]; 6 h, Rep2): 0%
- mortality at 1.56 ppm (Ctenocephalides felis [2]; 6 h, Rep1): 0%
- mortality at 1.56 ppm (Ctenocephalides felis [2]; 6 h, Rep2): 0%
- mortality at 6.25 ppm (Ctenocephalides felis [2]; 6 h, Rep1): 0%
- mortality at 6.25 ppm (Ctenocephalides felis [2]; 6 h, Rep2): 0%
- mortality at 25 ppm (Ctenocephalides felis [2]; 6 h, Rep1): 0%
- mortality at 25 ppm (Ctenocephalides felis [2]; 6 h, Rep2): 0%
- mortality at 100 ppm (Ctenocephalides felis [2]; 6 h, Rep1): 0%
- mortality at 100 ppm (Ctenocephalides felis [2]; 6 h, Rep2): 0%
- mortality at 0.006 ppm (Ctenocephalides felis [2]; 24 h, Rep1): 0%
- mortality at 0.006 ppm (Ctenocephalides felis [2]; 24 h, Rep2): 0%
- mortality at 0.024 ppm (Ctenocephalides felis [2]; 24 h, Rep1): 0%
- mortality at 0.024 ppm (Ctenocephalides felis [2]; 24 h, Rep2): 0%
- mortality at 0.098 ppm (Ctenocephalides felis [2]; 24 h, Rep1): 0%
- mortality at 0.098 ppm (Ctenocephalides felis [2]; 24 h, Rep2): 0%
- mortality at 0.39 ppm (Ctenocephalides felis [2]; 24 h, Rep1): 0%
- mortality at 0.39 ppm (Ctenocephalides felis [2]; 24 h, Rep2): 0%
- mortality at 1.56 ppm (Ctenocephalides felis [2]; 24 h, Rep1): 0%
- mortality at 1.56 ppm (Ctenocephalides felis [2]; 24 h, Rep2): 0%
- mortality at 6.25 ppm (Ctenocephalides felis [2]; 24 h, Rep1): 0%
- mortality at 6.25 ppm (Ctenocephalides felis [2]; 24 h, Rep2): 0%
- mortality at 25 ppm (Ctenocephalides felis [2]; 24 h, Rep1): 0%
- mortality at 25 ppm (Ctenocephalides felis [2]; 24 h, Rep2): 0%
- mortality at 100 ppm (Ctenocephalides felis [2]; 24 h, Rep1): 70%
- mortality at 100 ppm (Ctenocephalides felis [2]; 24 h, Rep2): 40%
- mortality at 0.006 ppm (Ctenocephalides felis [2]; 48 h, Rep1): 0%
- mortality at 0.006 ppm (Ctenocephalides felis [2]; 48 h, Rep2): 0%
- mortality at 0.024 ppm (Ctenocephalides felis [2]; 48 h, Rep1): 0%
- mortality at 0.024 ppm (Ctenocephalides felis [2]; 48 h, Rep2): 0%
- mortality at 0.098 ppm (Ctenocephalides felis [2]; 48 h, Rep1): 0%
- mortality at 0.098 ppm (Ctenocephalides felis [2]; 48 h, Rep2): 0%
- mortality at 0.39 ppm (Ctenocephalides felis [2]; 48 h, Rep1): 0%
- mortality at 0.39 ppm (Ctenocephalides felis [2]; 48 h, Rep2): 0%
- mortality at 1.56 ppm (Ctenocephalides felis [2]; 48 h, Rep1): 0%
- mortality at 1.56 ppm (Ctenocephalides felis [2]; 48 h, Rep2): 0%
- mortality at 6.25 ppm (Ctenocephalides felis [2]; 48 h, Rep1): 0%
- mortality at 6.25 ppm (Ctenocephalides felis [2]; 48 h, Rep2): 0%
- mortality at 25 ppm (Ctenocephalides felis [2]; 48 h, Rep1): 80%
- mortality at 25 ppm (Ctenocephalides felis [2]; 48 h, Rep2): 70%
- mortality at 100 ppm (Ctenocephalides felis [2]; 48 h, Rep1): 100%
- mortality at 100 ppm (Ctenocephalides felis [2]; 48 h, Rep2): 100%
